# Reference: US8969516B2, “Method of hydrolysis of peptide bond” (priority 2006, dated 2015)
# Assay: MALDI-TOF screening of Ni^2+ dependent hydrolysis in a combinatorial peptide library
# Assay type: physicochemical
# Settings: Ni^2+ 2 mM, pH 8.2, 10 mM Tris, score=24/tm
# Method in brief: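 Sublibraries of Ac-Gly-Ala-Ser/Thr-X-His-Z-Lys-Phe-Leu-NH2, randomized at Z and fixed at X, were hydrolyzed at 1 mM total peptide with 2 mM Ni2+ in 10 mM Tris, pH 8.2, at 37 °C or 45 °C. Cleavage was scored visually in MALDI-TOF spectra at 2, 4, 6 and 8 h.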
# [1] = CH3CO-Gly-Ala-Thr-X-His-Z-Lys-Phe-Leu-NH2 library, 37° C.
# [2] = CH3CO-Gly-Ala-Thr-X-His-Z-Lys-Phe-Leu-NH2 library, 45° C.
# [3] = CH3CO-Gly-Ala-Ser-X-His-Z-Lys-Phe-Leu-NH2 library, 37° C.
# [4] = CH3CO-Gly-Ala-Ser-X-His-Z-Lys-Phe-Leu-NH2 library, 45° C.
substance,measurement,setting,value
Ac-GATMHQKFL-NH2 [TMHQ],hydrolysis score from MALDI-TOF screening,[1],0 (a score of 0 if no trace of the product of hydrolysis was seen after 8 hours of incubation)
same,hydrolysis score from MALDI-TOF screening,[2],0 (a score of 0 if no trace of the product of hydrolysis was seen after 8 hours of incubation)
Ac-GATVHPKFL-NH2 [TVHP],hydrolysis score from MALDI-TOF screening,[1],0 (a score of 0 if no trace of the product of hydrolysis was seen after 8 hours of incubation)
same,hydrolysis score from MALDI-TOF screening,[2],0 (a score of 0 if no trace of the product of hydrolysis was seen after 8 hours of incubation)
Ac-GATRHHKFL-NH2 [TRHH],hydrolysis score from MALDI-TOF screening,[1],3 (a score of 3 for detection at 8 hours)
same,hydrolysis score from MALDI-TOF screening,[2],4 (a score of 4 for detection at 6 hours)
Ac-GATWHPKFL-NH2 [TWHP],hydrolysis score from MALDI-TOF screening,[1],0 (a score of 0 if no trace of the product of hydrolysis was seen after 8 hours of incubation)
same,hydrolysis score from MALDI-TOF screening,[2],0 (a score of 0 if no trace of the product of hydrolysis was seen after 8 hours of incubation)
Ac-GASWHWKFL-NH2 [SWHW],hydrolysis score from MALDI-TOF screening,[3],4 (a score of 4 for detection at 6 hours)
same,hydrolysis score from MALDI-TOF screening,[4],6 (a score of 6 for detection at 4 hours)
Ac-GATMHKKFL-NH2 [TMHK],hydrolysis score from MALDI-TOF screening,[1],0 (a score of 0 if no trace of the product of hydrolysis was seen after 8 hours of incubation)
same,hydrolysis score from MALDI-TOF screening,[2],3 (a score of 3 for detection at 8 hours)
Ac-GASKHKKFL-NH2 [SKHK],hydrolysis score from MALDI-TOF screening,[3],6 (a score of 6 for detection at 4 hours)
same,hydrolysis score from MALDI-TOF screening,[4],"12 (a score of 12, if it was seen to be partially hydrolysed at 2 hours)"
Ac-GATAHLKFL-NH2 [TAHL],hydrolysis score from MALDI-TOF screening,[1],0 (a score of 0 if no trace of the product of hydrolysis was seen after 8 hours of incubation)
same,hydrolysis score from MALDI-TOF screening,[2],0 (a score of 0 if no trace of the product of hydrolysis was seen after 8 hours of incubation)
Ac-GASGHSKFL-NH2 [SGHS],hydrolysis score from MALDI-TOF screening,[3],0 (a score of 0 if no trace of the product of hydrolysis was seen after 8 hours of incubation)
same,hydrolysis score from MALDI-TOF screening,[4],0 (a score of 0 if no trace of the product of hydrolysis was seen after 8 hours of incubation)
Ac-GASIHQKFL-NH2 [SIHQ],hydrolysis score from MALDI-TOF screening,[3],0 (a score of 0 if no trace of the product of hydrolysis was seen after 8 hours of incubation)
same,hydrolysis score from MALDI-TOF screening,[4],0 (a score of 0 if no trace of the product of hydrolysis was seen after 8 hours of incubation)
Ac-GATAHMKFL-NH2 [TAHM],hydrolysis score from MALDI-TOF screening,[1],0 (a score of 0 if no trace of the product of hydrolysis was seen after 8 hours of incubation)
same,hydrolysis score from MALDI-TOF screening,[2],0 (a score of 0 if no trace of the product of hydrolysis was seen after 8 hours of incubation)
Ac-GATKHGKFL-NH2 [TKHG],hydrolysis score from MALDI-TOF screening,[1],0 (a score of 0 if no trace of the product of hydrolysis was seen after 8 hours of incubation)
same,hydrolysis score from MALDI-TOF screening,[2],0 (a score of 0 if no trace of the product of hydrolysis was seen after 8 hours of incubation)
Ac-GATHHYKFL-NH2 [THHY],hydrolysis score from MALDI-TOF screening,[1],0 (a score of 0 if no trace of the product of hydrolysis was seen after 8 hours of incubation)
same,hydrolysis score from MALDI-TOF screening,[2],6 (a score of 6 for detection at 4 hours)
Ac-GASVHHKFL-NH2 [SVHH],hydrolysis score from MALDI-TOF screening,[3],3 (a score of 3 for detection at 8 hours)
same,hydrolysis score from MALDI-TOF screening,[4],3 (a score of 3 for detection at 8 hours)
Ac-GASAHNKFL-NH2 [SAHN],hydrolysis score from MALDI-TOF screening,[3],0 (a score of 0 if no trace of the product of hydrolysis was seen after 8 hours of incubation)
same,hydrolysis score from MALDI-TOF screening,[4],0 (a score of 0 if no trace of the product of hydrolysis was seen after 8 hours of incubation)
Ac-GASKHDKFL-NH2 [SKHD],hydrolysis score from MALDI-TOF screening,[3],0 (a score of 0 if no trace of the product of hydrolysis was seen after 8 hours of incubation)
same,hydrolysis score from MALDI-TOF screening,[4],0 (a score of 0 if no trace of the product of hydrolysis was seen after 8 hours of incubation)
Ac-GATWHMKFL-NH2 [TWHM],hydrolysis score from MALDI-TOF screening,[1],0 (a score of 0 if no trace of the product of hydrolysis was seen after 8 hours of incubation)
same,hydrolysis score from MALDI-TOF screening,[2],3 (a score of 3 for detection at 8 hours)
Ac-GATGHRKFL-NH2 [TGHR],hydrolysis score from MALDI-TOF screening,[1],0 (a score of 0 if no trace of the product of hydrolysis was seen after 8 hours of incubation)
same,hydrolysis score from MALDI-TOF screening,[2],0 (a score of 0 if no trace of the product of hydrolysis was seen after 8 hours of incubation)
Ac-GASLHWKFL-NH2 [SLHW],hydrolysis score from MALDI-TOF screening,[3],3 (a score of 3 for detection at 8 hours)
same,hydrolysis score from MALDI-TOF screening,[4],4 (a score of 4 for detection at 6 hours)
Ac-GASAHKKFL-NH2 [SAHK],hydrolysis score from MALDI-TOF screening,[3],3 (a score of 3 for detection at 8 hours)
same,hydrolysis score from MALDI-TOF screening,[4],6 (a score of 6 for detection at 4 hours)
Ac-GASSHKKFL-NH2 [SSHK],hydrolysis score from MALDI-TOF screening,[3],4 (a score of 4 for detection at 6 hours)
same,hydrolysis score from MALDI-TOF screening,[4],6 (a score of 6 for detection at 4 hours)
Ac-GATFHEKFL-NH2 [TFHE],hydrolysis score from MALDI-TOF screening,[1],0 (a score of 0 if no trace of the product of hydrolysis was seen after 8 hours of incubation)
same,hydrolysis score from MALDI-TOF screening,[2],0 (a score of 0 if no trace of the product of hydrolysis was seen after 8 hours of incubation)
Ac-GATSHQKFL-NH2 [TSHQ],hydrolysis score from MALDI-TOF screening,[1],0 (a score of 0 if no trace of the product of hydrolysis was seen after 8 hours of incubation)
same,hydrolysis score from MALDI-TOF screening,[2],0 (a score of 0 if no trace of the product of hydrolysis was seen after 8 hours of incubation)
Ac-GASKHHKFL-NH2 [SKHH],hydrolysis score from MALDI-TOF screening,[3],4 (a score of 4 for detection at 6 hours)
same,hydrolysis score from MALDI-TOF screening,[4],3 (a score of 3 for detection at 8 hours)
Ac-GASMHTKFL-NH2 [SMHT],hydrolysis score from MALDI-TOF screening,[3],0 (a score of 0 if no trace of the product of hydrolysis was seen after 8 hours of incubation)
same,hydrolysis score from MALDI-TOF screening,[4],0 (a score of 0 if no trace of the product of hydrolysis was seen after 8 hours of incubation)
Ac-GASPHHKFL-NH2 [SPHH],hydrolysis score from MALDI-TOF screening,[3],0 (a score of 0 if no trace of the product of hydrolysis was seen after 8 hours of incubation)
same,hydrolysis score from MALDI-TOF screening,[4],0 (a score of 0 if no trace of the product of hydrolysis was seen after 8 hours of incubation)
Ac-GASQHSKFL-NH2 [SQHS],hydrolysis score from MALDI-TOF screening,[3],0 (a score of 0 if no trace of the product of hydrolysis was seen after 8 hours of incubation)
same,hydrolysis score from MALDI-TOF screening,[4],0 (a score of 0 if no trace of the product of hydrolysis was seen after 8 hours of incubation)
Ac-GASSHLKFL-NH2 [SSHL],hydrolysis score from MALDI-TOF screening,[3],6 (a score of 6 for detection at 4 hours)
same,hydrolysis score from MALDI-TOF screening,[4],6 (a score of 6 for detection at 4 hours)
Ac-GATWHIKFL-NH2 [TWHI],hydrolysis score from MALDI-TOF screening,[1],0 (a score of 0 if no trace of the product of hydrolysis was seen after 8 hours of incubation)
same,hydrolysis score from MALDI-TOF screening,[2],3 (a score of 3 for detection at 8 hours)
Ac-GASGHMKFL-NH2 [SGHM],hydrolysis score from MALDI-TOF screening,[3],0 (a score of 0 if no trace of the product of hydrolysis was seen after 8 hours of incubation)
same,hydrolysis score from MALDI-TOF screening,[4],0 (a score of 0 if no trace of the product of hydrolysis was seen after 8 hours of incubation)
Ac-GATGHGKFL-NH2 [TGHG],hydrolysis score from MALDI-TOF screening,[1],0 (a score of 0 if no trace of the product of hydrolysis was seen after 8 hours of incubation)
same,hydrolysis score from MALDI-TOF screening,[2],0 (a score of 0 if no trace of the product of hydrolysis was seen after 8 hours of incubation)
Ac-GATTHYKFL-NH2 [TTHY],hydrolysis score from MALDI-TOF screening,[1],0 (a score of 0 if no trace of the product of hydrolysis was seen after 8 hours of incubation)
same,hydrolysis score from MALDI-TOF screening,[2],0 (a score of 0 if no trace of the product of hydrolysis was seen after 8 hours of incubation)
Ac-GASIHEKFL-NH2 [SIHE],hydrolysis score from MALDI-TOF screening,[3],0 (a score of 0 if no trace of the product of hydrolysis was seen after 8 hours of incubation)
same,hydrolysis score from MALDI-TOF screening,[4],0 (a score of 0 if no trace of the product of hydrolysis was seen after 8 hours of incubation)
Ac-GASQHRKFL-NH2 [SQHR],hydrolysis score from MALDI-TOF screening,[3],6 (a score of 6 for detection at 4 hours)
same,hydrolysis score from MALDI-TOF screening,[4],6 (a score of 6 for detection at 4 hours)
Ac-GATPHGKFL-NH2 [TPHG],hydrolysis score from MALDI-TOF screening,[2],0 (a score of 0 if no trace of the product of hydrolysis was seen after 8 hours of incubation)
Ac-GATVHLKFL-NH2 [TVHL],hydrolysis score from MALDI-TOF screening,[1],0 (a score of 0 if no trace of the product of hydrolysis was seen after 8 hours of incubation)
same,hydrolysis score from MALDI-TOF screening,[2],0 (a score of 0 if no trace of the product of hydrolysis was seen after 8 hours of incubation)
Ac-GATGHTKFL-NH2 [TGHT],hydrolysis score from MALDI-TOF screening,[1],0 (a score of 0 if no trace of the product of hydrolysis was seen after 8 hours of incubation)
same,hydrolysis score from MALDI-TOF screening,[2],0 (a score of 0 if no trace of the product of hydrolysis was seen after 8 hours of incubation)
Ac-GATGHSKFL-NH2 [TGHS],hydrolysis score from MALDI-TOF screening,[1],0 (a score of 0 if no trace of the product of hydrolysis was seen after 8 hours of incubation)
same,hydrolysis score from MALDI-TOF screening,[2],0 (a score of 0 if no trace of the product of hydrolysis was seen after 8 hours of incubation)
Ac-GASVHSKFL-NH2 [SVHS],hydrolysis score from MALDI-TOF screening,[3],0 (a score of 0 if no trace of the product of hydrolysis was seen after 8 hours of incubation)
same,hydrolysis score from MALDI-TOF screening,[4],0 (a score of 0 if no trace of the product of hydrolysis was seen after 8 hours of incubation)
